In patent US7122555B2, “Pyrido [2,1-a] isoquinoline derivatives” (Hoffmann-la Roche Inc., priority 2003, dated 2006):

Target: human DPP-IV (Homo sapiens, UniProt P27487)
Experiment: DPP-IV activity assay (fluorogenic or colorimetric substrate), IC50 determination
Protocol: Activity of DPP-IV inhibitors are tested with natural human DPP-IV derived from a human plasma pool or with recombinat human DPP-IV. Human citrate plasma from different donors is pooled, filterted through a 0.2 micron membrane under sterile conditions and aliquots of 1 ml are shock frozen and stored at −120° C. until used. In the colorimetric DPP-IV assay 5 to 10 μl human plasma and in the fluorometric assay 1.0 μl of human plasma in a total assay volume of 100 μl is used as an enzyme source. […] In the calorimetric DPP-IV assay 20 ng rec.-h DPP-IV and in the fluorometric assay 2 ng rec-h DPP-IV in a total assay volume of 100 μl is used as an enzyme source.
Initial rate constants are calculated by best fit linear regression.
The absorption of pNA liberated from the colorimetric substrate is detected in a Packard SpectraCount at 405 nm continuosly every 2 minutes for 30 to 120 minutes. Initial rate constants are calculated by best fit linear regression.
DPP-IV activity assays are performed in 96 well plates at 37° C. in a total assay volume of 100 μl. The assay buffer consists of 50 mM Tris/HCl pH 7.8 containing 0.1 mg/ml BSA and 100 mM NaCl. Test compounds are solved in 100% DMSO, diluted to the desired concentration in 10% DMSO/H2O. The final DMSO concentration in the assay is 1% (v/v). At this concentration enzyme inactivation by DMSO is <5%. Compounds are with (10 minutes at 37° C.) and without preincubation with the enzyme. Enzyme reactions are started with substrate application followed by immediate mixing.
Kinetic parameters of the enzyme reaction are calculated at at least 5 different substrate concentrations and at least 5 different test compound concentrations.

human DPP-IV, sequence (P27487 31-766): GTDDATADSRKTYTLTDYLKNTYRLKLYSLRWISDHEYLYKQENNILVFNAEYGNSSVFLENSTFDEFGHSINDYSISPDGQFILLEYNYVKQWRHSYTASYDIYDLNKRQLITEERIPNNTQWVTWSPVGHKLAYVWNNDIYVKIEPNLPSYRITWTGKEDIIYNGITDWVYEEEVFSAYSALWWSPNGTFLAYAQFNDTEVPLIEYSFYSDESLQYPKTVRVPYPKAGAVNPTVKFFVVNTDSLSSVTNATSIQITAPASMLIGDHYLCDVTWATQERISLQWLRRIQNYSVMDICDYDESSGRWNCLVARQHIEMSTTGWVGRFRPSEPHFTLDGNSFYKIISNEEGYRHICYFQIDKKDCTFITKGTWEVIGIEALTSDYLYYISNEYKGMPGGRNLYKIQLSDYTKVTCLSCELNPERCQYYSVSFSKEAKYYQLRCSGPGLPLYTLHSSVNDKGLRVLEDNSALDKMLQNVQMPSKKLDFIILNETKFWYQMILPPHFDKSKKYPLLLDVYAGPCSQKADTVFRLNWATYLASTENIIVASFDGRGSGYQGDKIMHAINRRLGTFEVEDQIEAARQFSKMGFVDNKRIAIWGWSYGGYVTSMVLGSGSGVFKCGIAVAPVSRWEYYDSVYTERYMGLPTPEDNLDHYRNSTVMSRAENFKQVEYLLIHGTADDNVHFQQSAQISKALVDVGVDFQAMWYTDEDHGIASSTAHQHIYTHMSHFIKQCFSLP

| IC50 | SMILES |
| --- | --- |
| 131 nM | COc1cc2c(cc1OC)[C@@H]1C[C@H](N)[C@@H](N3CCCCS3(=O)=O)CN1CC2 [Example 16, (S,S,S)-3-(1,1-Dioxo-[1,2]thiazinan-2-yl)-9,10-dimethoxy-1,3,4,6,7,11b-hexahydro-2H-pyrido[2,1-a]isoquinolin-2-ylamine] |
| 41 nM | COc1cc2c(cc1OC)[C@@H]1C[C@H](N)[C@@H](C(=O)N3CCSC3)CN1CC2 (racemic) [Example 2, (RS,RS,RS)-(2-Amino-9,10-dimethoxy-1,3,4,6,7,11b-hexahydro-2H-pyrido[2,1-a]isoquinolin-3-yl)-thiazolidin-3-yl-methanone] |
| 33 nM | COc1cc2c(cc1OC)[C@@H]1C[C@H](N)[C@@H](N3CCC=CC3=O)CN1CC2 (racemic) [Example 12, (RS,RS,RS)-1-(2-Amino-9,10-dimethoxy-1,3,4,6,7,11b-hexahydro-2H-pyrido [2,1-a]isoquinolin-3-yl)-5,6-dihydro-1H-pyridin-2-one] |
